# Data published in US9776999B2, “Antiparisitic dihydroazole compounds and compositions comprising same” (MERIAL, INC., priority 2009, dated 2017).
# Test system: Ctenocephalides felis
# Test: Contact activity of compounds against fleas (Method B)
# Details: adult fleas, treated filter paper; 72 hours assessment; test concentration of 100 ppm or less; versus untreated controls
# Procedure: METHOD B: Screening Method to test Contact Activity of Compounds Against Fleas
# A solution of the test compound was dispensed, using a pipette, onto filter paper placed into a glass vial. The filter paper was allowed to dry before infesting each vial with 10 adult Ctenocephalides felis. The treated Ctenocephalides felis were held in a controlled environment (24° C., 90-95% relative humidity) and assessment was performed at 24, 48 and 72 hours after application in comparison with untreated controls.
compound,measurement,value
"CSCCNC(=O)c1ccc(C2=NOC(c3cc(C(F)(F)F)cc(C(F)(F)F)c3)(C(F)(F)F)C2)n2cccc12 (stereo not shown) [Compound 1.009, 5-[5-(3,5-Bistrifluoromethylphenyl)-5-trifluoromethyl-4,5-dihydroisoxazol-3-yl]-indolizine-8-carboxylic acid (2-methylthioethyl)-amide]","control (Ctenocephalides felis, contact)",at least 80%
